{"source": "patent US12077503B2", "about": "“Substituted cyclic amides and their use as herbicides” (FMC CORPORATION, priority 2015, dated 2024)", "experiment_in_all_cases": "Test C preemergence", "type_in_all_cases": "in vivo", "key": {"[1]": {"test_system": "corn (Zea mays)", "settings": "for Plant response rating, Corn: scale 0 to 100, 0 no effect, 100 complete control", "method_in_brief": "(§1)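 Visual rating, 0–100 scale (0 = no effect, 100 = complete control) versus controls, 13–15 d after treatment. Compounds in non-phytotoxic solvent plus surfactant; applied preemergence to seeds in loam/sand soil or postemergence to 1- to 4-leaf plants (2–18 cm) in peat/vermiculite medium; greenhouse-held.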"}, "[2]": {"test_system": "wheat (winter wheat, Triticum aestivum)", "settings": "for Plant response rating, Wheat: scale 0 to 100, 0 no effect, 100 complete control", "method_in_brief": "as §1"}, "[3]": {"test_system": "crabgrass, large (large crabgrass, Digitaria sanguinalis)", "settings": "for Plant response rating, Crabgrass, Large: scale 0 to 100, 0 no effect, 100 complete control", "method_in_brief": "as §1"}, "[4]": {"test_system": "ragweed (common ragweed, Ambrosia elatior)", "settings": "for Plant response rating, Ragweed: scale 0 to 100, 0 no effect, 100 complete control", "method_in_brief": "as §1"}, "[5]": {"test_system": "velvetleaf (Abutilon theophrasti)", "settings": "for Plant response rating, Velvetleaf: scale 0 to 100, 0 no effect, 100 complete control", "method_in_brief": "as §1"}, "[6]": {"test_system": "soybean (Glycine max)", "settings": "for Plant response rating, Soybean: scale 0 to 100, 0 no effect, 100 complete control", "method_in_brief": "as §1"}, "[7]": {"test_system": "ryegrass, Italian (Italian ryegrass, Lolium multiflorum)", "settings": "for Plant response rating, Ryegrass, Italian: scale 0 to 100, 0 no effect, 100 complete control", "method_in_brief": "as §1"}, "[8]": {"test_system": "waterhemp (common waterhemp, Amaranthus rudis)", "settings": "for Plant response rating, Waterhemp: scale 0 to 100, 0 no effect, 100 complete control", "method_in_brief": "as §1"}, "[9]": {"test_system": "foxtail, giant (giant foxtail, Setaria faberii)", "settings": "for Plant response rating, Foxtail, Giant: scale 0 to 100, 0 no effect, 100 complete control", "method_in_brief": "as §1"}, "[10]": {"test_system": "pigweed (Amaranthus retroflexus)", "settings": "for Plant response rating, Pigweed: scale 0 to 100, 0 no effect, 100 complete control", "method_in_brief": "as §1"}, "[11]": {"test_system": "barnyardgrass (Echinochloa crus-galli)", "settings": "for Plant response rating, Barnyardgrass: scale 0 to 100, 0 no effect, 100 complete control", "method_in_brief": "as §1"}, "[12]": {"test_system": "nutsedge, yellow (yellow nutsedge, Cyperus esculentus)", "settings": "for Plant response rating, Nutsedge, Yellow: scale 0 to 100, 0 no effect, 100 complete control", "method_in_brief": "as §1"}, "[13]": {"test_system": "morningglory (Ipomoea coccinea)", "settings": "for Plant response rating, Morningglory: scale 0 to 100, 0 no effect, 100 complete control", "method_in_brief": "as §1"}, "[14]": {"test_system": "johnsongrass (Sorghum halepense)", "settings": "for Plant response rating, Johnsongrass: scale 0 to 100, 0 no effect, 100 complete control", "method_in_brief": "as §1"}, "[15]": {"test_system": "blackgrass (Alopecurus myosuroides)", "settings": "for Plant response rating, Blackgrass: scale 0 to 100, 0 no effect, 100 complete control", "method_in_brief": "as §1"}, "[16]": {"test_system": "oilseed rape (Brassica napus)", "settings": "for Plant response rating, Oilseed Rape: scale 0 to 100, 0 no effect, 100 complete control", "method_in_brief": "as §1"}, "[17]": {"test_system": "Galium (catchweed bedstraw, Galium aparine)", "settings": "for Plant response rating, Galium: scale 0 to 100, 0 no effect, 100 complete control", "method_in_brief": "as §1"}, "[18]": {"settings": "31 g ai/ha, 0 is no effect, 100 is complete control"}}}
{"smiles": "O=C1NCC(c2cc(F)cc(C(F)(F)F)c2)C1C(=O)Nc1cccc(F)c1F", "note": "(centres unmarked) [Compound 488]", "values": [{"measurement": "Plant response rating (scale of 0 to 100), Corn", "setting": "[1]; [18]", "value": 25}, {"measurement": "Plant response rating, Corn", "setting": "[1]; 62 g ai/ha", "value": 60}, {"measurement": "Plant response rating, Corn", "setting": "[1]; 125 g ai/ha", "value": 70}, {"measurement": "Plant response rating, Corn", "setting": "[1]; 250 g ai/ha", "value": 85}, {"measurement": "Plant response rating (scale of 0 to 100), Wheat", "setting": "[2]; [18]", "value": 35}, {"measurement": "Plant response rating, Wheat", "setting": "[2]; 62 g ai/ha", "value": 35}, {"measurement": "Plant response rating, Wheat", "setting": "[2]; 125 g ai/ha", "value": 85}, {"measurement": "Plant response rating, Wheat", "setting": "[2]; 250 g ai/ha", "value": 90}, {"measurement": "Plant response rating (scale of 0 to 100), Crabgrass, Large", "setting": "[3]; [18]", "value": 90}, {"measurement": "Plant response rating, Crabgrass, Large", "setting": "[3]; 62 g ai/ha", "value": 95}, {"measurement": "Plant response rating, Crabgrass, Large", "setting": "[3]; 125 g ai/ha", "value": 95}, {"measurement": "Plant response rating, Crabgrass, Large", "setting": "[3]; 250 g ai/ha", "value": 100}, {"measurement": "Plant response rating (scale of 0 to 100), Ragweed", "setting": "[4]; [18]", "value": 0}, {"measurement": "Plant response rating, Ragweed", "setting": "[4]; 62 g ai/ha", "value": 25}, {"measurement": "Plant response rating, Ragweed", "setting": "[4]; 125 g ai/ha", "value": 40}, {"measurement": "Plant response rating, Ragweed", "setting": "[4]; 250 g ai/ha", "value": 70}, {"measurement": "Plant response rating (scale of 0 to 100), Velvetleaf", "setting": "[5]; [18]", "value": 0}, {"measurement": "Plant response rating, Velvetleaf", "setting": "[5]; 62 g ai/ha", "value": 0}, {"measurement": "Plant response rating, Velvetleaf", "setting": "[5]; 125 g ai/ha", "value": 10}, {"measurement": "Plant response rating, Velvetleaf", "setting": "[5]; 250 g ai/ha", "value": 20}, {"measurement": "Plant response rating (scale of 0 to 100), Soybean", "setting": "[6]; [18]", "value": 0}, {"measurement": "Plant response rating, Soybean", "setting": "[6]; 62 g ai/ha", "value": 0}, {"measurement": "Plant response rating, Soybean", "setting": "[6]; 125 g ai/ha", "value": 0}, {"measurement": "Plant response rating, Soybean", "setting": "[6]; 250 g ai/ha", "value": 10}, {"measurement": "Plant response rating (scale of 0 to 100), Ryegrass, Italian", "setting": "[7]; [18]", "value": 5}, {"measurement": "Plant response rating, Ryegrass, Italian", "setting": "[7]; 62 g ai/ha", "value": 35}, {"measurement": "Plant response rating, Ryegrass, Italian", "setting": "[7]; 125 g ai/ha", "value": 70}, {"measurement": "Plant response rating, Ryegrass, Italian", "setting": "[7]; 250 g ai/ha", "value": 65}, {"measurement": "Plant response rating (scale of 0 to 100), Waterhemp", "setting": "[8]; [18]", "value": 25}, {"measurement": "Plant response rating, Waterhemp", "setting": "[8]; 62 g ai/ha", "value": 40}, {"measurement": "Plant response rating, Waterhemp", "setting": "[8]; 125 g ai/ha", "value": 75}, {"measurement": "Plant response rating, Waterhemp", "setting": "[8]; 250 g ai/ha", "value": 80}, {"measurement": "Plant response rating (scale of 0 to 100), Foxtail, Giant", "setting": "[9]; [18]", "value": 85}, {"measurement": "Plant response rating, Foxtail, Giant", "setting": "[9]; 62 g ai/ha", "value": 90}, {"measurement": "Plant response rating, Foxtail, Giant", "setting": "[9]; 125 g ai/ha", "value": 90}, {"measurement": "Plant response rating, Foxtail, Giant", "setting": "[9]; 250 g ai/ha", "value": 95}, {"measurement": "Plant response rating (scale of 0 to 100), Pigweed", "setting": "[10]; [18]", "value": 20}, {"measurement": "Plant response rating, Pigweed", "setting": "[10]; 62 g ai/ha", "value": 75}, {"measurement": "Plant response rating, Pigweed", "setting": "[10]; 125 g ai/ha", "value": 70}, {"measurement": "Plant response rating, Pigweed", "setting": "[10]; 250 g ai/ha", "value": 85}, {"measurement": "Plant response rating (scale of 0 to 100), Barnyardgrass", "setting": "[11]; [18]", "value": 95}, {"measurement": "Plant response rating, Barnyardgrass", "setting": "[11]; 62 g ai/ha", "value": 90}, {"measurement": "Plant response rating, Barnyardgrass", "setting": "[11]; 125 g ai/ha", "value": 95}, {"measurement": "Plant response rating, Barnyardgrass", "setting": "[11]; 250 g ai/ha", "value": 95}, {"measurement": "Plant response rating (scale of 0 to 100), Nutsedge, Yellow", "setting": "[12]; [18]", "value": 0}, {"measurement": "Plant response rating, Nutsedge, Yellow", "setting": "[12]; 62 g ai/ha", "value": 0}, {"measurement": "Plant response rating, Nutsedge, Yellow", "setting": "[12]; 125 g ai/ha", "value": 0}, {"measurement": "Plant response rating, Nutsedge, Yellow", "setting": "[12]; 250 g ai/ha", "value": 0}, {"measurement": "Plant response rating (scale of 0 to 100), Morningglory", "setting": "[13]; [18]", "value": 0}, {"measurement": "Plant response rating, Morningglory", "setting": "[13]; 62 g ai/ha", "value": 25}, {"measurement": "Plant response rating, Morningglory", "setting": "[13]; 125 g ai/ha", "value": 55}, {"measurement": "Plant response rating, Morningglory", "setting": "[13]; 250 g ai/ha", "value": 60}, {"measurement": "Plant response rating (scale of 0 to 100), Johnsongrass", "setting": "[14]; [18]", "value": 70}, {"measurement": "Plant response rating, Johnsongrass", "setting": "[14]; 62 g ai/ha", "value": 80}, {"measurement": "Plant response rating, Johnsongrass", "setting": "[14]; 125 g ai/ha", "value": 85}, {"measurement": "Plant response rating, Johnsongrass", "setting": "[14]; 250 g ai/ha", "value": 90}, {"measurement": "Plant response rating (scale of 0 to 100), Blackgrass", "setting": "[15]; [18]", "value": 0}, {"measurement": "Plant response rating, Blackgrass", "setting": "[15]; 62 g ai/ha", "value": 50}, {"measurement": "Plant response rating, Blackgrass", "setting": "[15]; 125 g ai/ha", "value": 90}, {"measurement": "Plant response rating, Blackgrass", "setting": "[15]; 250 g ai/ha", "value": 85}, {"measurement": "Plant response rating (scale of 0 to 100), Oilseed Rape", "setting": "[16]; [18]", "value": 40}, {"measurement": "Plant response rating, Oilseed Rape", "setting": "[16]; 62 g ai/ha", "value": 45}, {"measurement": "Plant response rating, Oilseed Rape", "setting": "[16]; 125 g ai/ha", "value": 85}, {"measurement": "Plant response rating, Oilseed Rape", "setting": "[16]; 250 g ai/ha", "value": 90}, {"measurement": "Plant response rating (scale of 0 to 100), Galium", "setting": "[17]; [18]", "value": 80}, {"measurement": "Plant response rating, Galium", "setting": "[17]; 62 g ai/ha", "value": 85}, {"measurement": "Plant response rating, Galium", "setting": "[17]; 125 g ai/ha", "value": 85}, {"measurement": "Plant response rating, Galium", "setting": "[17]; 250 g ai/ha", "value": 85}]}
